Assays:
MDM2 = biological target: T1, MDM2 (Homo sapiens, UniProt Q00987); assay: Western blot (SDS-PAGE) of intracellular MDM2 protein degradation in hDPSCs; assay type: cell-based; details: FIG. 2; selected treatment concentrations not given
T1 construct: degradation by nutlin-based CRBN-recruiting PROTACs, Western blot
Procedure: Human dental pulp stem cell lines (hDPSCs) were treated with 14 types of synthesized MDM2-PROTACs (10 μM) for 1 hour and Western blot analysis using SDS-PAGE gel was performed to evaluate the intracellular MDM2 protein degradation capacity.

p53 = p53 activation in selection of compounds (FIG. 2); assay type: cell-based, human; details: selected treatment concentrations not given

T1 sequence (Q00987 whole entry): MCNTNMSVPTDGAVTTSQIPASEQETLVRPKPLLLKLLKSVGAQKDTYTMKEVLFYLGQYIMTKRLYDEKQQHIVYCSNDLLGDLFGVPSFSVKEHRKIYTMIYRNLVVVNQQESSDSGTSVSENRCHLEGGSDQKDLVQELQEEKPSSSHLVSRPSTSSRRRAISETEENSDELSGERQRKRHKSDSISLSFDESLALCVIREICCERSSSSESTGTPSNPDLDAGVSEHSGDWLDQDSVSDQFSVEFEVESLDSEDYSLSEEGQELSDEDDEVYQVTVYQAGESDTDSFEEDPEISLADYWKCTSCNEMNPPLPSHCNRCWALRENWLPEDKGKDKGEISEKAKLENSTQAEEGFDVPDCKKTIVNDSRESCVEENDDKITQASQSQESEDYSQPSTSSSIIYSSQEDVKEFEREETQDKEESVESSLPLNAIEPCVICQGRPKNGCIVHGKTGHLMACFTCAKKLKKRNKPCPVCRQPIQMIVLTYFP
T1 sequence (Q96SW2 whole entry partner): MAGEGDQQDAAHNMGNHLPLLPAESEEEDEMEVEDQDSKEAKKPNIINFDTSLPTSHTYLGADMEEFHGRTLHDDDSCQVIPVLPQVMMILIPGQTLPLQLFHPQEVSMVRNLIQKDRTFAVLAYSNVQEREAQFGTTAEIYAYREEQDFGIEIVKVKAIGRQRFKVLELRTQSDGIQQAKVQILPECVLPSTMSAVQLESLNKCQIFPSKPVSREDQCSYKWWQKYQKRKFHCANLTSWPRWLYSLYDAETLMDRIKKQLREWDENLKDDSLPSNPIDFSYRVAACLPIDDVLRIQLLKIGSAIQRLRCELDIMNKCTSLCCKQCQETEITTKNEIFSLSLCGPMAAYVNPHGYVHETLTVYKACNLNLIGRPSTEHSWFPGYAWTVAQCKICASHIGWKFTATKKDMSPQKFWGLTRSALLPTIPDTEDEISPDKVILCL

MDM2 degradation (selected compounds) (MDM2) | Substance | p53 activation (selected compounds) (p53)
effectively degrade MDM2 | 2-(4-(cis-4,5-bis(4-chlorophenyl)-2-(2-isopropoxy-oxopiperazin-1-yl)-N-(9-(2-(2,6-dioxopiperidin-3-yl)-1,3-dioxoisoindolin-4-yl)non-8-yn-1-yl) acetamide [Compound 16b] | activate p53
effectively degrade MDM2 | 2-(4-(cis-4,5-bis(4-chlorophenyl)-2-(2-isopropoxy-4-methoxyphenyl)-4,5-dihydro-1H-imidazole-1-carbonyl)-2-oxopiperazin-1-yl)-N-(8-((2-(2,6-dioxo-opiperidin-3-yl)-1,3-dioxoisoindolin-4-yl)oxy)octyl)acetamide [Compound 6b] | activate p53
